Measured values reported in patent publication US20130022612A1, “METHODS AND COMPOSITIONS FOR MALARIA PROPHYLAXIS” (priority 2004, published 2013).
Non-standard residues stand in square brackets, D forms with d. Residues, ends and D or L forms follow the SMILES beside them. *: point of attachment. Sta = CC(C)C[C@H](N)[C@@H](O)CC(=O)O; Isovaleryl = CC(C)CC(=O)*

Key:
[1] = system: CSP processing in P. berghei sporozoites; experiment: Pulse-chase metabolic labeling of CSP processing, P. berghei sporozoites; type: cell-based, Plasmodium berghei; conditions: two hour chase at 28° C.; 10 mM E-64, 1 mM PMSF, 0.3 mM aprotinin, 100 mM 3,4 DCl, 75 mM leupeptin, 100 mM TLCK, 1 mM pepstatin, 1 mM 1,10 phenanthroline, 5 mM EDTA
Protocol: P. berghei sporozoites were incubated in Dulbecco's Modified Eagle Medium (DMEM; Invitrogen, Carlsbad, Calif.) without cysteine (Cys) and methionine (Met), containing 1% BSA and […] L-[35 S]-Cys/Met (Pro-Mix, Amersham Pharmacia) in a total volume of 200 μl for one hour at 28° C. They were then washed and resuspended in DMEM/BSA containing unlabeled Cys/Met at 28° C. for the indicated time in the presence or absence of the indicated protease inhibitor. Sporozoites were then lysed and CSP was immunoprecipitated and analyzed by autoradiography as outlined below.
When sporozoites were incubated with specific inhibitors, their concentrations were as follows: 10 […] E-64; 1 mM phenylmethylsulfonyl fluoride (PMSF); 0.3 mM aprotinin; 100 mM 3,4 DCl; 75 mM leupeptin; 100 mM TLCK; 1 mM pepstatin; 1 mM 1,10 phenanthroline; 5 mM EDTA; 0.5% sodium azide. To check for toxicity by propidium iodide (PI) staining, P. berghei sporozoites were incubated in the presence or absence of the various protease inhibitors for two hours at 28° C., PI was then added to a final concentration of […] for five minutes at 28° C. The sporozoites were washed and viewed under a fluorescent microscope.
Metabolically-labeled sporozoites were lysed in lysis buffer (1% Triton X-100, 50 mM Tris-HCl pH 8.0) with 150 mM NaCl containing a protease inhibitor cocktail (Complete Mini-Tablets, Roche) for one hour at 4° C. The lysates were incubated with mAb 3D11 conjugated to agarose overnight at 4° C. with agitation, and the beads were then washed sequentially with lysis buffer containing 150 mM NaCl, high salt buffer (500 mM NaCl in lysis buffer), lysis buffer without added NaCl, and pre-elution buffer (0.5% Triton X-100, 10 mM Tris-HCl pH 6.8). CSP was eluted with 1% SDS in 0.1 M glycine pH 1.8, neutralized with 1.5 M Tris-HCl pH 8.8, and run on a 7.5% SDS-polyacrylamide gel under nonreducing conditions.
P. berghei sporozoites were metabolically labeled as previously described (Bruna-Romero, O., et al.). Briefly, sporozoites were labeled in Dulbecco's Modified Eagle Medium containing 1% BSA (DMEM/BSA) without Cys/Met and with 400 μCi/ml L-[^35S]Cys/Met for one hour at 28° C. and chased in DMEM/BSA with Cys/Met at 28° C. in the presence of 10 μM E-64 or the indicated concentrations of allicin. Labeled sporozoites were lysed in 1% Triton X-100/150 mM NaCl/50 mM Tris-HCl pH 8.0 with protease inhibitors, and lysates were incubated with 3D11-sepharose overnight at 4° C. CSP was eluted with 1% SDS in 0.1 M glycine pH 1.8, neutralized with Tris-HCl pH 8.8, and run on a 7.5% SDS-polyacrylamide gel under nonreducing conditions. The gel was fixed, enhanced with Amplify (Amersham Pharmacia), dried and exposed to film.
P. berghei sporozoites were metabolically labeled in DMEM without Cys/Met, 1% BSA and 400 μCi/ml L-[^355]-Cys/Met for 1 hour at 28° C. and then kept on ice or chased at 28° C. for the indicated times. Details of this procedure are outlined in (Coppi et al., 2005). To investigate the kinetics of processing in the presence of hepatocytes, sporozoites were labeled as above, chased at 28° C. for 1 hour and then centrifuged (300×g) onto glass coverslips with Hepa 1-6 cells and incubated at 37° C. for 5, 15 or 30 minutes. To investigate the effect of antibodies on CSP cleavage, sporozoites were labeled as above and then chased for 2 hours in the presence of the indicated antibody. Monoclonal antibodies were used as purified antibodies at the indicated concentrations and the IgG fraction of the NH2-terminal antiserum was used after isolation by Protein A (Vivapure maxiprepA; Sartorius, Edgewood, N.Y.). In all cases, labeled sporozoites (with or without Hepa 1-6 cells) were lysed and labeled CSP was immunoprecipitated with mAb-3D11 conjugated to sepharose or in the case of P. falciparum CSP, with mAb-2A10 conjugated to sepharose, as previously described (Coppi et al., 2005). CSP was eluted from the beads, run on an SDS-PAGE gel which was enhanced, dried and exposed to film. […]

P. berghei sporozoites [2] = type: cell-based, Plasmodium berghei; conditions: sporozoites preincubated two hours with inhibitor, Hepa 1-6 cells, one hour
Protocol: %invasion=total sporozites−extracellular sporozites×100/total sporozites
Invasion assays were performed as previously described (Pinzon-Ortiz, C., et al.) with some modifications. […] Cells were then washed, fixed, and sporozoites were stained with a double staining assay that distinguishes between intracellular and extracellular sporozoites (Renia, L., et al.). […]

[3] = system: CSP cleavage in P. berghei sporozoites; experiment: Cell contact assay (CSP cleavage on contact with hepatocytes); type: cell-based, Plasmodium berghei
Protocol: Hepa 1-6 cells were seeded on glass coverslips at a density of 2×10^5 cells per coverslip and grown until confluent. P. berghei sporozoites were incubated in DMEM±10 mM E-64 at 4° C. for two hours. Thirty minutes before sporozoites were added to coverslips, Cytochalasin D (CD) was added to all samples (final concentration, […]). Sporozoites were centrifuged onto coverslips (1250×g) for five minutes at 4° C. Coverslips were then brought to 37° C. for two minutes, fixed with 4% paraformaldehyde and stained with either mAb 3D11 followed by anti-mouse Ig FITC or the N-terminal antiserum (1:100) followed by anti-rabbit Ig FITC. […] As a control, sporozoites were spun onto coverslips without cells using the protocol outlined above.

P. berghei sporozoites [4] = conditions: sporozoites incubated with inhibitor for two hours, then metabolically labeled
Protocol: Panel A illustrates P. berghei sporozoites were metabolically labeled with [35 S]-Cys/Met and then washed and kept on ice (lane 1) or chased with cold medium for two hours at 28° C., in the absence (lane 2) or presence of the indicated protease inhibitors (lanes 3-11). After the chase, sporozoites were lysed, CSP was immunoprecipitated and analyzed by SDS-PAGE and autoradiography (abbreviations: Apr, aprotinin; DCl, 3,4 DCl; Leu, leupeptin; Pep, pepstatin; Phen, 1,10 phenanthroline). Panel B illustrates P. falciparum sporozoites were metabolically labeled as above and then kept on ice (lane 1) or chased with cold medium for ninety minutes in the absence (lane 2) or presence of E-64 (lane 3). Samples were processed as outlined above. Panel C illustrates P. berghei sporozoites were preincubated with buffer (lane 1) or the indicated compounds, washed, metabolically labeled with [^35S]-Cys/Met, lysed, and CSP was immunoprecipitated and analyzed by SDS-PAGE and autoradiography. (Abbreviations: Az=sodium azide).
In addition to the above, pulse-chase metabolic labeling experiments were performed with sporozoites of the human malaria parasite, Plasmodium falciparum. […] In order to insure that the protease inhibitors were not toxic to sporozoites, sporozoites were incubated with the various inhibitors for two hours and then propidium iodide (hereinafter, “PI”) was added, which is a fluorescent molecule that enters permeabilized cells.

[5] = target: Plasmodium berghei circumsporozoite protein (CSP), full-length, high molecular weight form (Plasmodium berghei) (UniProt P23093); experiment: cell-based or functional assay

`c1cnc2c(c1)ccc1cccnc12` [1,10 phenanthroline] was tested. Which “effect on CSP processing” value [1] did it give?
The value was “no effect on CSP processing”.

Which results are given for `O=c1oc(Cl)c(Cl)c2ccccc12` [3,4 DCl, 3,4-dichloroisocoumarin]?
effect on CSP processing [1]: Neither compound had an effect on CSP processing; effect on sporozoite invasion (P. berghei sporozoites [2]): did not have significant inhibitory activity on invasion

How did the “percentage staining with the N-terminal antiserum” value ([3]; experiment 1, no cells, visualized with α-N) turn out when `C=C1[C@@H](C)[C@H]2[C@H](Cc3ccccc3)NC(=O)[C@]23[C@H](OC(C)=O)/C=C/[C@@](C)(O)C(=O)[C@@H](C)C/C=C/[C@H]3[C@@H]1O` [CD, cytochalasin D] was run?
Its value is 85% ± 1.1.

What about the “Number of Sporozoites Visualized” value ([3]; experiment 1, wildtype sporozoites, Hepa 1-6, visualized with 3D11) of the same compound?
Its value is 244 ± 3.

And the “Number of Sporozoites Visualized” value ([3]; experiment 2, GFP sporozoites, Hepa 1-6, visualized by GFP)?
Its value is 452 ± 8.

What about the “Number of Sporozoites Visualized” value ([3]; experiment 2, GFP sporozoites, Hepa 1-6, visualized with α-N) of the same compound?
The value was 98 ± 2.

For `O=C(O)CN(CCN(CC(=O)O)CC(=O)O)CC(=O)O` [EDTA], which “effect on CSP processing” value [1] is on record?
Its value is “no effect on CSP processing”.

Which results are given for `O=S(=O)(F)Cc1ccccc1` [PMSF, phenylmethylsulfonyl fluoride]?
CSP synthesis after incubation with inhibitor (P. berghei sporozoites [4]): not affected; effect on CSP processing [1]: inhibited CSP processing; effect on sporozoite invasion (P. berghei sporozoites [2]): had inhibitory activity

For `Cc1ccc(S(=O)(=O)N[C@@H](CCCCN)C(=O)CCl)cc1` [TLCK], which “effect on CSP processing” value [1] is on record?
The value was “inhibited CSP processing”.

With `CC(=O)N[C@@H](CC(C)C)C(=O)N[C@@H](CC(C)C)C(=O)N[C@H](C=O)CCCNC(=N)N` [leupeptin] as the compound, how does the “CSP synthesis after incubation with inhibitor” value (P. berghei sporozoites [4]) read?
The value was “not affected”.

And the “effect on CSP processing” value [1]?
Its value is “inhibited CSP processing”.

And the “effect on sporozoite invasion” value (P. berghei sporozoites [2])?
The value was “had inhibitory activity”.

How did the “effect on CSP processing” value [1] turn out when `CC(C)CC(=O)N[C@H](C(=O)N[C@H](C(=O)N[C@@H](CC(C)C)[C@@H](O)CC(=O)N[C@@H](C)C(=O)N[C@@H](CC(C)C)[C@@H](O)CC(=O)O)C(C)C)C(C)C` [pepstatin] (Isovaleryl-VV[Sta]A[Sta]-OH) was run?
Its value is “no effect on CSP processing”.

And the “effect on sporozoite invasion” value (P. berghei sporozoites [2])?
Its value is “no effect on invasion”.

aprotinin was tested. Which “effect on CSP processing” value [1] did it give?
Its value is “Neither compound had an effect on CSP processing”.

And the “effect on sporozoite invasion” value (P. berghei sporozoites [2])?
The value was “did not have significant inhibitory activity on invasion”.

With mAb 3D11 (antibody) as the compound, how does the inhibition of CSP cleavage at 10 µg/ml, pulse-chase metabolic labeling [5] read?
The inhibition of CSP cleavage at 10 µg/ml, pulse-chase metabolic labeling was 50 to 75%.
